Results from patent publication US10385097B2, “Ether compounds for treatment of medical disorders” (Achillion Pharmaceuticals, Inc., priority 2015, dated 2019).
Where two headings read alike, the source gives them in different places. Values belong to the compound of their own block, whether it stands above or below them.

Biological target: T1, Human Factor D (Homo sapiens, UniProt P00746)
T1 construct: purified from human serum; purchased Complement Technology, Inc; host or cells: human serum (natural protein, not recombinant)
Test: Human Factor D Assay
Format: biochemical
Experimental: Example 8. Human Factor D Assay
Human Factor D (purified from human serum, Complement Technology, Inc.) at 80 nM final concentration is incubated with test compound at various concentrations for 5 minutes at room temperature in 50 mM Tris, 1M NaCl, pH 7.5. A synthetic substrate Z-L-Lys-SBzl and DTNB (Ellman's reagent) are added to final concentrations of 100 μM each. Absorbance at 405 nm (A405) is recorded at 30 second intervals for 30 minutes using a microplate spectrophotometer. IC50 values are calculated by nonlinear regression of complement Factor D reaction rates as a function of test compound concentration.

[1] = Table 1, Human Factor D 80 nM, substrate Z-L-Lys-SBzl, read-out: IC50

T1 sequence (P00746 26-253): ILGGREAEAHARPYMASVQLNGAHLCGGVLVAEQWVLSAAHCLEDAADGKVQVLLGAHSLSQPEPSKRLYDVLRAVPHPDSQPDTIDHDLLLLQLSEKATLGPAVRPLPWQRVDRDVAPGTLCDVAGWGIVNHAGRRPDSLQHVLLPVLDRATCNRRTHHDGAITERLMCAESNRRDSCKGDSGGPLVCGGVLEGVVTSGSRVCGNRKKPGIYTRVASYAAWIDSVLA

IC50 (Table 3, Human Factor D 80 nM, substrate Z-L-Lys-SBzl, read-out: (IC50 (Stars))): < 1000 nM
SMILES: CC(=O)c1cn(CC(=O)N2C[C@H](F)C[C@H]2C(=O)Nc2cccc(Br)n2)c2ccc(OCC[S+]([O-])CC3(C)COC3)cc12 (some centres unmarked) [Cmp 4]

IC50 [1]: < 1000 nM
SMILES: CC(=O)c1cn(CC(=O)N2C[C@H](F)C[C@H]2C(=O)Nc2cccc(OC(F)(F)F)c2F)c2cc(OCC3CC3)ccc12 [Cmp 4]

SMILES: CC(=O)c1cn(CC(=O)N2C[C@H](F)C[C@H]2C(=O)NCc2cccc(Cl)c2F)c2cc(OCCC3CC3)ccc12 [Cmp 5]
IC50: < 1000 nM

SMILES: CC(=O)c1cn(CC(=O)N2C[C@H](F)C[C@H]2C(=O)Nc2cccc(Br)n2)c2ccc(OCCSCC3(C)COC3)cc12 [Cmp 5]
IC50: < 1000 nM

IC50 [1]: < 1000 nM
SMILES: CC(=O)c1cn(CC(=O)N2C[C@H](F)C[C@H]2C(=O)NCc2cccc(Cl)c2F)c2cc(OCC3CC3)ccc12 [Compound 1, (2S,4R)-1-(2-(3-acetyl-6-(cyclopropylmethoxy)-1H-indol-1-yl)acetyl)-N-(3-chloro-2-fluorobenzyl)-4-fluoropyrrolidine-2-carboxamide]

SMILES: CC(=O)c1cn(CC(=O)N2C[C@H](F)C[C@H]2C(=O)NCc2cccc(Cl)c2F)c2cc(OS(=O)(=O)C(F)(F)F)ccc12 [Compound 2, 3-acetyl-1-(2-((2S,4R)-2-(3-chloro-2-fluorobenzylcarbamoyl)-4-fluoropyrrolidin-1-yl)-2-oxoethyl)-1H-indol-6-yl trifluoromethanesulfonate]
IC50 [1]: < 1000 nM

SMILES: CC(=O)c1cn(CC(=O)N2[C@@H]3C[C@@H]3C[C@H]2C(=O)NCc2cccc(Cl)c2F)c2cc(OCC3CC3)ccc12 [Compound 3, (1R,3S,5R)-2-(2-(3-acetyl-6-(cyclopropylmethoxy)-1H-indol-1-yl)acetyl)-N-(3-chloro-2-fluorobenzyl)-2-azabicyclo[3.1.0]hexane-3-carboxamide]
IC50 [1]: < 1000 nM

SMILES: CCOP(=O)(COc1ccc2c(C(C)=O)cn(CC(=O)N3C[C@H](F)C[C@H]3C(=O)NCc3cccc(Cl)c3F)c2c1)OCC [Compound 7, Diethyl(((3-acetyl-1-(2-((2S,4R)-2-((3-chloro-2-fluorobenzyl)carbamoyl)-4-fluoropyrrolidin-1-yl)-2-oxoethyl)-1H-indol-6-yl)oxy)methyl)phosphonate]
IC50 [1]: < 1000 nM

SMILES: CC(=O)c1cn(CC(=O)N2C[C@H](F)C[C@H]2C(=O)NCc2cccc(Cl)c2F)c2cc(OCP(=O)(O)O)ccc12 [Compound 8, (((3-Acetyl-1-(2-((2S,4R)-2-((3-chloro-2-fluorobenzyl)carbamoyl)-4-fluoropyrrolidin-1-yl)-2-oxoethyl)-1H-indol-6-yl)oxy)methyl)phosphonic acid]
IC50 [1]: < 1000 nM

SMILES: CC(=O)c1cn(CC(=O)N2C[C@H](F)C[C@H]2C(=O)NCc2cccc(Cl)c2F)c2ccc(OS(=O)(=O)C(F)(F)F)cc12 [Compound 9, 3-acetyl-1-(2-((2S,4R)-2-(3-chloro-2-fluorobenzylcarbamoyl)-4-fluoropyrrolidin-1-yl)-2-oxoethyl)-1H-indol-5-yl trifluoromethanesulfonate]
IC50 [1]: < 1000 nM

SMILES: CCOP(=O)(COc1ccc2c(c1)c(C(C)=O)cn2CC(=O)N1C[C@H](F)C[C@H]1C(=O)NCc1cccc(Cl)c1F)OCC [Compound 10, Diethyl(((3-acetyl-1-(2-((2S,4R)-2-((3-chloro-2-fluorobenzyl)carbamoyl)-4-fluoropyrrolidin-1-yl)-2-oxoethyl)-1H-indol-5-yl)oxy)methyl)phosphonate]
IC50 [1]: < 1000 nM

SMILES: CC(=O)c1cn(CC(=O)N2C[C@H](F)C[C@H]2C(=O)NCc2cccc(Cl)c2F)c2ccc(OCP(=O)(O)O)cc12 [Compound 11, (((3-acetyl-1-(2-((2S,4R)-2-((3-chloro-2-fluorobenzyl)carbamoyl)-4-fluoropyrrolidin-1-yl)-2-oxoethyl)-1H-indol-5-yl)oxy)methyl)phosphonic acid]
IC50 [1]: < 1000 nM

SMILES: CC(=O)c1cn(CC(=O)N2C[C@H](F)C[C@H]2C(=O)NCc2cccc(Cl)c2F)c2cc(OCP(=O)(OCOC(=O)OC(C)C)OCOC(=O)OC(C)C)ccc12 [Compound 12, (((3-acetyl-1-(2-((2S,4R)-2-(3-chloro-2-fluorobenzylcarbamoyl)-4-fluoropyrrolidin-1-yl)-2-oxoethyl)-1H-indol-6-yloxy)methyl)phosphoryl)bis(oxy)bis(methylene) isopropyl dicarbonate]
IC50 [1]: < 1000 nM

SMILES: CC(=O)c1cn(CC(=O)N2C[C@H](F)C[C@H]2C(=O)NCc2cccc(Cl)c2F)c2cc(OCP(=O)(O)OCOC(=O)OC(C)C)ccc12 [Compound 13, (((((3-Acetyl-1-(2-((2S,4R)-2-((3-chloro-2-fluorobenzyl)carbamoyl)-4-fluoropyrrolidin-1-yl)-2-oxoethyl)-1H-indol-6-yl)oxy)methyl)(hydroxy)phosphoryl)oxy)methyl isopropyl carbonate]
IC50: < 1000 nM

SMILES: CCOP(=O)(CC)COc1ccc2c(C(C)=O)cn(CC(=O)N3C[C@H](F)C[C@H]3C(=O)NCc3cccc(Cl)c3F)c2c1 (stereo partly drawn) [Compound 14, Ethyl (((3-acetyl-1-(2-((2S,4R)-2-((3-chloro-2-fluorobenzyl)carbamoyl)-4-fluoropyrrolidin-1-yl)-2-oxoethyl)-1H-indol-6-yl)oxy)methyl)(ethyl)phosphinate]
IC50 [1]: < 1000 nM

SMILES: CC(=O)c1cn(CC(=O)N2C[C@H](F)C[C@H]2C(=O)NCc2cccc(Cl)c2F)c2cc(OCS(=O)(=O)NC(C)(C)C)ccc12 [Compound 15, (2S,4R)-1-(2-(3-Acetyl-6-((N-(tert-butyl)sulfamoyl)methoxy)-1H-indol-1-yl)acetyl)-N-(3-chloro-2-fluorobenzyl)-4-fluoropyrrolidine-2-carboxamide]
IC50: < 1000 nM

SMILES: CCP(=O)(O)COc1ccc2c(C(C)=O)cn(CC(=O)N3C[C@H](F)C[C@H]3C(=O)NCc3cccc(Cl)c3F)c2c1 [Compound 16, (((3-Acetyl-1-(2-((2S,4R)-2-((3-chloro-2-fluorobenzyl)carbamoyl)-4-fluoropyrrolidin-1-yl)-2-oxoethyl)-1H-indol-6-yl)oxy)methyl)(ethyl)phosphinic Acid]
IC50: < 1000 nM

SMILES: CC(=O)c1cn(CC(=O)N2C[C@H](F)C[C@H]2C(=O)NCc2cccc(Cl)c2F)c2cc(OCS(N)(=O)=O)ccc12 [Compound 17, (2S,4R)-1-(2-(3-acetyl-6-(sulfamoylmethoxy)-1H-indol-1-yl)acetyl)-N-(3-chloro-2-fluorobenzyl)-4-fluoropyrrolidine-2-carboxamide]
IC50 [1]: < 1000 nM

SMILES: CCOP(=O)(COc1ccc2c(C(C)=O)cn(CC(=O)N3C[C@H](F)C[C@H]3C(=O)N[C@H](C)c3cccc(Cl)c3F)c2c1)OCC [Compound 18, diethyl (3-acetyl-1-(2-((2S,4R)-2-((R)-1-(3-chloro-2-fluorophenyl)ethylcarbamoyl)-4-fluoropyrrolidin-1-yl)-2-oxoethyl)-1H-indol-6-yloxy)methylphosphonate]
IC50 [1]: < 1000 nM

SMILES: CC(=O)c1cn(CC(=O)N2C[C@H](F)C[C@H]2C(=O)N[C@H](C)c2cccc(Cl)c2F)c2cc(OCP(=O)(O)O)ccc12 [Compound 19, (3-acetyl-1-(2-((2S,4R)-2-((R)-1-(3-chloro-2-fluorophenyl)ethylcarbamoyl)-4-fluoropyrrolidin-1-yl)-2-oxoethyl)-1H-indol-6-yloxy)methylphosphonic acid]
IC50 [1]: < 1000 nM

SMILES: CCCCCCCCCCCCCCCCOCCCOP(=O)(O)COc1ccc2c(C(C)=O)cn(CC(=O)N3C[C@H](F)C[C@H]3C(=O)NCc3cccc(Cl)c3F)c2c1 [Compound 20, 3-(hexadecyloxy)propyl hydrogen (3-acetyl-1-(2-((2S,4R)-2-(3-chloro-2-fluorobenzylcarbamoyl)-4-fluoropyrrolidin-1-yl)-2-oxoethyl)-1H-indol-6-yloxy)methylphosphonate]
IC50 [1]: < 1000 nM

SMILES: CC(=O)c1cn(CC(=O)N2C[C@H](F)C[C@H]2C(=O)NCc2cccc(Cl)c2F)c2cc(OCP(=O)(OCOC(=O)C(C)(C)C)OCOC(=O)C(C)(C)C)ccc12 [Compound 21, (((((3-Acetyl-1-(2-((2S,4R)-2-((3-chloro-2-fluorobenzyl)carbamoyl)-4-fluoropyrrolidin-1-yl)-2-oxoethyl)-1H-indol-6-yl)oxy)methyl)phosphoryl)bis(oxy))bis(methylene) bis(2,2-dimethylpropanoate)]
IC50: < 1000 nM

SMILES: CC(=O)c1cn(CC(=O)N2C[C@H](F)C[C@H]2CNS(=O)(=O)c2cccc(Cl)c2F)c2cc(OCP(=O)(O)O)ccc12 [Compound 22, (3-acetyl-1-(2-((2S,4R)-2-((3-chloro-2-fluorophenylsulfonamido)methyl)-4-fluoropyrrolidin-1-yl)-2-oxoethyl)-1H-indol-6-yloxy)methylphosphonic acid]
IC50 [1]: < 1000 nM

SMILES: CCC(=O)OC(OP(=O)(COc1ccc2c(C(C)=O)cn(CC(=O)N3C[C@H](F)C[C@H]3C(=O)NCc3cccc(Cl)c3F)c2c1)OC(OC(=O)CC)C(C)C)C(C)C (stereo partly drawn) [Compound 23, 1,1′-(((3-acetyl-1-(2-((2S,4R)-2-(3-chloro-2-fluorobenzylcarbamoyl)-4-fluoropyrrolidin-1-yl)-2-oxoethyl)-1H-indol-6-yloxy)methyl)phosphoryl)bis(oxy)bis(2-methylpropane-1,1-diyl) dipropionate]
IC50 [1]: < 1000 nM

SMILES: CC(=O)c1cn(CC(=O)N2C[C@H](F)C[C@H]2C(=O)NCc2cccc(Cl)c2F)c2cc(OCP(=O)(N[C@@H](C)C(=O)OC(C)C)N[C@@H](C)C(=O)OC(C)C)ccc12 [Compound 24, (2S,2′S)-isopropyl-2,2′-(((3-acetyl-1-(2-((2S,4R)-2-(3-chloro-2-fluorobenzylcarbamoyl)-4-fluoropyrrolidin-1-yl)-2-oxoethyl)-1H-indol-6-yloxy)methyl)phosphoryl)bis(azanediyl) dipropanoate]
IC50: < 1000 nM

SMILES: CC(=O)c1cn(CC(=O)N2C[C@H](F)C[C@H]2C(=O)Nc2ccc(OC(F)(F)F)c(F)c2)c2cc(OCP(=O)(O)O)ccc12 [Compound 25, (3-acetyl-1-(2-((2S,4R)-4-fluoro-2-(3-fluoro-4-(trifluoromethoxy)phenylcarbamoyl)pyrrolidin-1-yl)-2-oxoethyl)-1H-indol-6-yloxy)methylphosphonic acid]
IC50 [1]: < 1000 nM
